Among the test systems are MALME-3M melanoma; CAKI-1 renal; SK-MEL-28 melanoma; TK-10 renal; MOLT-4 leukemia; RXF 393 renal; EKVX NSCLC; HL-60(TB) leukemia.
Common to all, as to test: growth of human tumour cells (NCI), 48 h

SMILES strings stand for the structures.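 1) Cells in 96-well plates. 2) Compound, 48 h, 5 concentrations. 3) Linear interpolation between surrounding doses. 4) Unreached endpoint = highest concentration. GI50: concentration for 50% inhibition of growth. TGI: concentration producing complete growth inhibition.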

As to `FC(F)(F)C1(Br)C(c2ccccc2)=C1c1ccccc1`, the TGI in the test with MALME-3M melanoma was 30.5 µM; with CAKI-1 renal, 54.7 µM; in the test on SK-MEL-28 melanoma, 33.8 µM; with TK-10 renal, 48.6 µM; in the test on MOLT-4 leukemia, over 100 µM; in the test on RXF 393 renal, 31.7 µM. Also, the TGI with EKVX NSCLC and with HL-60(TB) leukemia was over 100 µM in each case.
Consider `COC(=O)C(Cc1nc2ccccc2[nH]c1=O)C(=O)C(=O)Nc1ccc([N+](=O)[O-])cc1[N+](=O)[O-]` (centres undefined), for which the TGI was 34.3 µM in the test on MALME-3M melanoma; over 100 µM with CAKI-1 renal; 40.1 µM in the test with SK-MEL-28 melanoma; 61.4 µM in the test with TK-10 renal; 59.1 µM with MOLT-4 leukemia; 36.8 µM in the test on RXF 393 renal. Further, the TGI with EKVX NSCLC was determined as 51.2 µM; with HL-60(TB) leukemia it was 66.5 µM.
As for `O=[N+]([O-])CCc1cccc([N+](=O)[O-])c1`, the TGI in the test on MALME-3M melanoma, in the test with CAKI-1 renal, in the test on SK-MEL-28 melanoma, in the test on TK-10 renal, with MOLT-4 leukemia and with RXF 393 renal was over 100 µM each time. Moreover, the TGI in the test on EKVX NSCLC and in the test with HL-60(TB) leukemia was over 100 µM each time.
Take `C[N+](C)(C)CC(=O)N/N=C(\C(=O)NC1=C(Cl)C(=O)c2ccccc2C1=O)C(C#N)c1csc(-c2ccc([N+](=O)[O-])cc2)n1` (centres undefined): the TGI in the test on MALME-3M melanoma, in the test on CAKI-1 renal, in the test with SK-MEL-28 melanoma, in the test on TK-10 renal, in the test with MOLT-4 leukemia and in the test with RXF 393 renal was over 100 µM in each case. Also, the TGI in the test with EKVX NSCLC and with HL-60(TB) leukemia was over 100 µM in each case.
On to `CCOc1cccc2ccc[n+](CC)c12`, for which the TGI in the test on MALME-3M melanoma, in the test on SK-MEL-28 melanoma, with TK-10 renal, in the test on MOLT-4 leukemia, with RXF 393 renal and in the test with EKVX NSCLC was over 100 µM each time.
As to `Cc1cc(Cl)ccc1NC(=O)C(=O)C(C(=O)c1ccc2ccccc2c1)C1OC(=O)c2ccccc21` (centres undefined), the TGI was determined as 22.8 µM in the test on MALME-3M melanoma; 35.5 µM in the test on CAKI-1 renal; 54.5 µM in the test with SK-MEL-28 melanoma; 9.53 µM in the test with RXF 393 renal; 75.9 µM in the test on EKVX NSCLC.
As for `COC(C(=O)NCCCCNC(=O)C(OC)c1ccccc1)c1ccccc1` (centres undefined), the TGI in the test with MALME-3M melanoma, with CAKI-1 renal, in the test with SK-MEL-28 melanoma, in the test on TK-10 renal, in the test on MOLT-4 leukemia and in the test with RXF 393 renal was over 100 µM throughout. Besides, the TGI in the test on EKVX NSCLC and in the test with HL-60(TB) leukemia was over 100 µM each time.
Take `O=C(Nc1cccc(O)c1)C(=O)C(C(=O)c1ccc(Cl)c(Cl)c1)C1OC(=O)c2ccccc21` (centres undefined): the TGI in the test with MALME-3M melanoma is 33.8 µM; in the test on CAKI-1 renal it was 75 µM; in the test on SK-MEL-28 melanoma, 40.6 µM; with TK-10 renal, 60.3 µM; with MOLT-4 leukemia, 29.2 µM; in the test with RXF 393 renal, 37.2 µM. Moreover, the TGI in the test on EKVX NSCLC was 46.6 µM; in the test with HL-60(TB) leukemia, 36.5 µM.
On to `O=C1OC(O)C(Oc2c(Cl)cccc2Cl)=C1Cl` (centres undefined), for which the TGI in the test with MALME-3M melanoma was determined as 75.4 µM; in the test with CAKI-1 renal, 48 µM; in the test with SK-MEL-28 melanoma, 45.7 µM; with TK-10 renal it was 69.1 µM; in the test on MOLT-4 leukemia, 85.7 µM; in the test on RXF 393 renal it was 23.9 µM. Also, the TGI is 73.2 µM in the test with EKVX NSCLC and 50.1 µM in the test with HL-60(TB) leukemia.
`CCOC(=N)CC(=O)c1ccccc1`: the TGI in the test with MALME-3M melanoma, with CAKI-1 renal, with SK-MEL-28 melanoma, with TK-10 renal, in the test on MOLT-4 leukemia and in the test on RXF 393 renal was over 100 µM in each case. For the same molecule, the TGI in the test on EKVX NSCLC and with HL-60(TB) leukemia was over 100 µM in each case.
In the case of `CC(=O)[CH-]C(=O)c1ccccc1.CC(=O)[CH-]C(=O)c1ccccc1.CCOCC[O-].CCOCC[O-].[Ti+4]`, the GI50 with MALME-3M melanoma was 16.9 µM; in the test on CAKI-1 renal, 19.2 µM; in the test with SK-MEL-28 melanoma, 10.8 µM; in the test with MOLT-4 leukemia it was 10.4 µM; in the test with EKVX NSCLC, 38.4 µM; in the test with HL-60(TB) leukemia, 13.8 µM. Besides, the TGI in the test on MALME-3M melanoma is 43.7 µM; with CAKI-1 renal it was 57.8 µM; in the test with SK-MEL-28 melanoma, 27.6 µM; with MOLT-4 leukemia, 56.5 µM; in the test with EKVX NSCLC, 96.4 µM; in the test on HL-60(TB) leukemia, 45.4 µM.
In the case of `CCCN(CCCC(NC(C)=O)C(=O)NCc1ccccc1)C(=O)NCCCl` (centres undefined), the TGI with MALME-3M melanoma, in the test on CAKI-1 renal, in the test on SK-MEL-28 melanoma, with TK-10 renal, in the test with MOLT-4 leukemia and in the test on RXF 393 renal was over 100 µM in each case. In addition, the TGI in the test with EKVX NSCLC and in the test with HL-60(TB) leukemia was over 100 µM in each case.
On to `CC(C)(C)C(=O)OCC1CCC(n2cnc3c(=O)[nH]c(N)nc32)O1` (centres undefined), for which the TGI in the test on MALME-3M melanoma, with CAKI-1 renal, in the test on SK-MEL-28 melanoma, in the test on TK-10 renal and with EKVX NSCLC was over 100 µM in each case.
Take `CC(C)(C)C1CCC2c3c([nH]c4ccccc34)C3C(=O)N(c4ccccc4)C(=O)C3C2C1` (centres undefined): the TGI with MALME-3M melanoma stood at 7.31 µM; with SK-MEL-28 melanoma, 18.8 µM; in the test on TK-10 renal, 12.5 µM; in the test on MOLT-4 leukemia, 14 µM; with RXF 393 renal, 14.4 µM; in the test on EKVX NSCLC it was 55.3 µM. In the test with HL-60(TB) leukemia, this molecule yielded a TGI of 30.6 µM.
Regarding `Cc1cc(N(CCC#N)S(C)(=O)=O)ccc1C=Nc1ccc(C(=O)NN2C(=O)/C(=C/c3ccc(N(CCC#N)CCC#N)cc3C)N=C2c2cc([N+](=O)[O-])ccc2Cl)cc1`, the TGI in the test on MALME-3M melanoma, with CAKI-1 renal, in the test on SK-MEL-28 melanoma, in the test on TK-10 renal, in the test on RXF 393 renal and with EKVX NSCLC was over 100 µM each time. Also, the TGI in the test with HL-60(TB) leukemia is over 100 µM.
For `C=C[C@@]1(O)CCCC2=C(C(=O)OCC)CC[C@]21C`, the TGI in the test with MALME-3M melanoma, in the test on SK-MEL-28 melanoma, with TK-10 renal, in the test with MOLT-4 leukemia, with RXF 393 renal and in the test with EKVX NSCLC was over 100 µM in each case. In addition, the TGI in the test on HL-60(TB) leukemia is over 100 µM.
Take `CCc1cccc(CC)c1NC(=O)C1=C(C)NC(C)=C(C(=O)Nc2c(CC)cccc2CC)C1c1ccc([N+](=O)[O-])cc1`: the TGI was 46.8 µM with MALME-3M melanoma; over 100 µM in the test with CAKI-1 renal; 39.9 µM in the test with SK-MEL-28 melanoma; 82.5 µM in the test with TK-10 renal; 43.3 µM with MOLT-4 leukemia; 77.6 µM in the test on RXF 393 renal. In addition, the figures for the TGI in the test on EKVX NSCLC and in the test on HL-60(TB) leukemia were 78.3 µM and 48.7 µM, respectively.
With `N#C/C(=C1\SC(N=Nc2ccccc2)C(=O)N1c1ccccc1)c1nc2ccccc2[nH]1` (centres undefined), the TGI in the test with MALME-3M melanoma was over 100 µM; with CAKI-1 renal, over 100 µM; with SK-MEL-28 melanoma, over 100 µM; with TK-10 renal it was over 100 µM; in the test on MOLT-4 leukemia, over 100 µM; in the test on RXF 393 renal, 97.6 µM. Also, the TGI in the test with EKVX NSCLC and in the test on HL-60(TB) leukemia was over 100 µM each time.
Take `O=C1C(Cl)C(c2ccccc2O)N1n1cnc2ccccc2c1=O` (centres undefined): the TGI was over 100 µM with MALME-3M melanoma; over 100 µM in the test with CAKI-1 renal; over 100 µM in the test on SK-MEL-28 melanoma; over 100 µM in the test with TK-10 renal; over 100 µM in the test on MOLT-4 leukemia; 95.7 µM in the test on RXF 393 renal. Further, the figures for the TGI in the test on EKVX NSCLC and in the test on HL-60(TB) leukemia were 88.5 µM and over 100 µM, respectively.
Turning to `CN1C(=O)C(=O)c2cc3c(c4c2c1cc1ccccc14)OCO3`, the TGI is over 100 µM in the test on MALME-3M melanoma; over 100 µM in the test with CAKI-1 renal; over 100 µM in the test on SK-MEL-28 melanoma; over 100 µM in the test with TK-10 renal; 93.4 µM with MOLT-4 leukemia; 96.8 µM with RXF 393 renal. In addition, the TGI in the test with EKVX NSCLC and with HL-60(TB) leukemia was over 100 µM each time.
Turning to `COC(=O)C1[C@H](c2cc(OC)c(OC)c(OC)c2)OC(=O)C1(C(=O)OC)C(=O)c1ccc2c(c1)OCO2` (some centres undefined), the TGI with MALME-3M melanoma, in the test with CAKI-1 renal, in the test with SK-MEL-28 melanoma, in the test on TK-10 renal, in the test on MOLT-4 leukemia and with RXF 393 renal was over 100 µM in each case. Also, the TGI with EKVX NSCLC and with HL-60(TB) leukemia was over 100 µM each time.
Turning to `CCOC(=N)/C(=C1\OC(N)=C(c2ccc(Cl)cc2)C1=O)c1ccc(Cl)cc1`, the TGI was 28.2 µM in the test with MALME-3M melanoma; 62.8 µM in the test on CAKI-1 renal; 31.7 µM in the test with SK-MEL-28 melanoma; 51.9 µM in the test on TK-10 renal; 52.1 µM in the test on MOLT-4 leukemia; 27.2 µM with RXF 393 renal. For the same molecule, the values for the TGI in the test on EKVX NSCLC and in the test on HL-60(TB) leukemia were 32.7 µM and 42 µM, respectively.
As to `CC/C(CC(=O)CCC(=O)Nc1ccccc1[N+](=O)[O-])=N/NC(=O)C[n+]1ccccc1`, the TGI in the test with MALME-3M melanoma, in the test on CAKI-1 renal, in the test with SK-MEL-28 melanoma, in the test with TK-10 renal, in the test with MOLT-4 leukemia and in the test with RXF 393 renal was over 100 µM throughout. The TGI in the test on EKVX NSCLC and in the test with HL-60(TB) leukemia was over 100 µM in each case.
Turning to `O=c1[nH]c2cc(Cl)ccc2nc1/C(=N\O)C(O)c1ccc([N+](=O)[O-])cc1` (centres undefined), the TGI in the test on MALME-3M melanoma, in the test with CAKI-1 renal, in the test on TK-10 renal, in the test with MOLT-4 leukemia, in the test on RXF 393 renal and in the test on EKVX NSCLC was over 100 µM in each case. The molecule also had a TGI in the test with HL-60(TB) leukemia of over 100 µM.

Source of the values: PubChem BioAssay (NCI).
